What was measured:
[1] = Dependence of relative fluorescent intensity on pH values; format: physicochemical; details: 25 μM, pH 8, excitation 302 nm
Description: The dependence of relative fluorescent intensity on pH values. 5-amino-2-methoxypyridine (6) was used to determine whether protonization/de-protonization affects the relative fluorescent intensities of the reporters. A stock solution of (6) in ethanol (5 μl, 5 mM) was added to 995 μl 0.1 M sodium phosphate buffer (from pH 6.0 to pH 8.0) or 0.1 M Tris/HCl buffer (pH 9.0) in a quartz cuvette (final substrate concentration 25 μM). Relative fluorescent unit/intensity (RFU) for emission spectra was recorded by a 2 nm interval at room temperature using a fixed excitation wavelength (λ=302 nm). The RFU of each pH value was an average of triplicates and the standard deviation for each point was less than 1%. Similarly, the RFU of the excitation spectrum was recorded by a 2 nm interval at room temperature using a fixed emission wavelength (λ=396 nm) in 0.1 M phosphate buffer (pH 8.0).

[2] = Comparison of aqueous solubility of substrates (absorbance at 800 nm); format: physicochemical; details: 0.1 M phosphate buffer (pH 8.0), 1% ethanol, 37° C.
Description: Comparison of aqueous solubility of substrates. The aqueous solubility of the aminopyridine derivatives (e.g., 13, 14) and the 7-aminocoumarin derivative (e.g., 15) was determined in clear 96-well styrene flat-bottom microtiter plates with a Spectra Max M2 spectrophotometer. Different concentrations of the substrates (13, 14 and 15; final concentration: 0.39, 0.78, 1.56, 3.13, 6.25, 12.5, 25, 50, 100, or 200 μM) in 200 μl 0.1 M sodium phosphate buffer (1% ethanol; pH 8.0) were used and the absorbance was recorded at a wavelength of 800 nm at 37° C. The measurements were performed in three replicates for each concentration.

[3] = target: T1, fatty acid amide hydrolase (FAAH) (Homo sapiens, UniProt O00519); assay: Kinetic study of FAAH toward substrates; format: biochemical
T1 construct: made in house; host or cells: Trichoplusia ni High Five cells infected with recombinant baculovirus Ac-hFAAH; microsomal fraction
T1 sequence (O00519 1-579): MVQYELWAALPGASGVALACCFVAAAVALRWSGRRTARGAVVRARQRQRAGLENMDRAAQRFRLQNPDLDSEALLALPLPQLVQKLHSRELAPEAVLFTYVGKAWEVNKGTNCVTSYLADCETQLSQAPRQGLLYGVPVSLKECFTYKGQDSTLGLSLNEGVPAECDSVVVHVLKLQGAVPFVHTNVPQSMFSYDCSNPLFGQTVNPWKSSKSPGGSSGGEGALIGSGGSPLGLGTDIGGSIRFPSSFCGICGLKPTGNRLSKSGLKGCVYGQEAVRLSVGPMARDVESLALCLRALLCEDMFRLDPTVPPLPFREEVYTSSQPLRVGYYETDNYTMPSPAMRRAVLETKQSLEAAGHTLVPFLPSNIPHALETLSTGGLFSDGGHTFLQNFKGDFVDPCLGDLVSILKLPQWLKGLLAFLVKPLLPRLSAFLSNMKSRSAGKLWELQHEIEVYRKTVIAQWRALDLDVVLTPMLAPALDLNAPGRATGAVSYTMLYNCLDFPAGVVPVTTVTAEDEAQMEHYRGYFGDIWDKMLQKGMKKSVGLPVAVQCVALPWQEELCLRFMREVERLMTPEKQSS
Description: Preparation of recombinant human FAAH. Transgenic expression of the human FAAH in a baculovirus system was performed by following the method described in Nishi et al., Arch. Biochem. Biophys., 445:115-123 (2006). The cDNA encoding human FAAH (GenBank Accession No. NM_001441) was amplified by PCR using a human liver cDNA library (Invitrogen; Carlsbad, Calif.) as a template. The primer pair was 5′-[…]-3′ and 5′-[…]-3′. BglII and EcoRI endonuclease sites (underlined) were incorporated just upstream of the start codon and downstream of the stop codon of the coding sequence of FAAH, respectively. The PCR products were cloned into a pCR2.1 vector (Invitrogen) and the nucleotide sequence was verified by DNA sequencing. The cDNA fragments were then excised and directionally ligated to the BglII and EcoRI sites of the baculovirus transfer vector pAcUW21 (Lopez-Ferber et al., Baculovirus transfer vectors, in “Baculovirus Expression Protocols,” Richardson (Ed.), pp 25-63, Humana Press, Totowa, N.J., 1995). Recombinant baculoviruses harboring the human FAAH gene, Ac-hFAAH, were generated by co-transfection of Spodoptera frugiperda-derived Sf21 cells with the recombinant transfer vector plasmid and Bsu36I-cleaved BacPAK6 viral DNA (Clontech Laboratories; Mountain View, Calif.) as described in O'Reilly et al., Baculovirus Expression Vectors: A Laboratory Manual, Oxford University Press, New York, 1992. Trichoplusia ni-derived High Five cells (1×10^6 cells/ml) were inoculated with a high titer of Ac-hFAAH. At 72 hours post-infection, the infected cells were harvested by centrifugation at 2,000×g for 20 min at 4° C. and suspended in 50 mM Tris-HCl (pH 8.0) containing 150 mM NaCl, 1 mM EDTA, 1 μM pepstatin, 100 μM leupeptin, and 0.1 mg/ml aprotinin. The cell suspension was then homogenized using a Polytron homogenizer and centrifuged at 10,000×g for 20 min at 4° C. The microsomal fraction was collected by ultracentrifugation of the supernatant at 100,000×g for 60 min at 4° C. The pellet was resuspended in 20 mM Tris-HCl (pH 8.0) containing 10% (w/v) glycerol and 1% (w/v) Triton-X 100 and stored at −80° C. until use.
Kinetic study. The kinetic assays were also performed as described above for the sensitivity assay. Briefly, a total volume of 201 μl contained 0.1 M sodium phosphate buffer (pH 8.0) (190 μl) with 1% glycerol and 0.1% Triton-X 100, protein solution (10 μl), and substrate solution (1 μl). The protein content was 0.67 μg per well (201 μl). The concentration of substrate (13) in DMSO was 200, 100, 50, 25, 12.5, 6.25, 3.13, 1.56, or 0.78 μM. Similarly, the concentration of substrate (17) in DMSO was 100, 50, 25, 12.5, 6.25, 3.13, 1.56, 0.78, or 0.39 μM. Four replicates were applied for each concentration. Reported kinetic data (km and Vmax) were analyzed by the SigmaPlot Enzyme Kinetics software (2001) using the Michaelis-Menten equation for all concentrations.

[4] = test system: amidases, microsomes from High Five cells; assay: Specific activity, microsomes from High Five cells; details: pH 8.0, 37° C.; NM = not measurable at the same protein concentration as other substrates
Description: Preparation of recombinant human FAAH. Transgenic expression of the human FAAH in a baculovirus system was performed by following the method described in Nishi et al., Arch. […] The cDNA encoding human FAAH (GenBank Accession No. NM—001441) was amplified by PCR using a human liver cDNA library (Invitrogen; Carlsbad, Calif.) as a template. The primer pair was 5′-[sequence]-3′ and 5′-[sequence]-3′. BglII and EcoRI endonuclease sites (underlined) were incorporated just upstream of the start codon and downstream of the stop codon of the coding sequence of FAAH, respectively. The PCR products were cloned into a pCR2.1 vector (Invitrogen) and the nucleotide sequence was verified by DNA sequencing. The cDNA fragments were then excised and directionally ligated to the BglII and EcoRI sites of the baculovirus transfer vector pAcUW21 (Lopez-Ferber et al., Baculovirus transfer vectors, in “Baculovirus Expression Protocols,” Richardson (Ed.), pp 25-63, Humana Press, Totowa, N.J., 1995). Recombinant baculoviruses harboring the human FAAH gene, Ac-hFAAH, were generated by co-transfection of Spodoptera frugiperda-derived Sf21 cells with the recombinant transfer vector plasmid and Bsu36I-cleaved BacPAK6 viral DNA (Clontech Laboratories; Mountain View, Calif.) as described in O'Reilly et al., Baculovirus Expression Vectors: A Laboratory Manual, Oxford University Press, New York, 1992. Trichoplusia ni-derived High Five cells (1×10^6 cells/ml) were inoculated with a high titer of Ac-hFAAH. At 72 hours post-infection, the infected cells were harvested by centrifugation at 2,000×g for 20 min at 4° C. and suspended in 50 mM Tris-HCl (pH 8.0) containing 150 mM NaCl, 1 mM EDTA, 1 μM pepstatin, 100 μM leupeptin, and 0.1 mg/ml aprotinin. The cell suspension was then homogenized using a Polytron homogenizer and centrifuged at 10,000×g for 20 min at 4° C. […]
Comparison of the lowest detection limits of protein concentration of FAAH toward colorimetric and fluorescent substrates. […] The lowest detection limits of microsomal fatty acid amide hydrolase (FAAH) by substrates were determined by the fact that the signal at 10 min after kinetic measurements are equal to or over three times the noise or basal line at 0 min. Colorimetric substrate (16) assays were performed in clear 96-well microtititer plates using an absorbance wavelength at 382 nm. The fluorescent substrates containing 5-amino-2-methoxypyridine (e.g., 10, 13) were measured at an excitation wavelength (302 nm), emission wavelength (396 nm), and auto cutoff wavelength (325 nm). Similarly, the fluorescent substrates containing 5-amino-2-methoxy-6-methylpyridine (e.g., 11, 14, and 17) were measured at an excitation wavelength (304 nm), emission wavelength (392 nm), and an auto cutoff wavelength of 325 nm. […]

[5] = pH 8.0, 37° C., 0.67 μg protein per well, Michaelis-Menten

CCCCCCCC(=O)Nc1ccc(OC)nc1 [Compound 13, N-(6-methoxypyridin-3-yl) octanamide]
relative fluorescent intensity of substrate emission at the maximal excitation wavelength of (6) [1]: less than 200 RFU
aqueous solubility compared with coumarin substrate (15) [2]: much higher solubility
Selectivity ratio ([3]; Vmax/Km of substrate over that of oleamide (5.5 × 10^−2)): 74.5
Km [3, 5]: 74.9 µM
Vmax [3, 5]: 305 nmol/min/mg
difference in Vmax between (13) and (17) ([3]; saturating substrate concentration): 8 fold
melting point: 61.2 to 61.7 °C
Specific activity, Microsomes from High Five cells [4]: 793 ± 38.9 pmol/min/mg protein

From patent US20100160391A1, “Substituted Aminopyridines as Fluorescent Reporters for Amide Hydrolases” (priority 2006, published 2010)
